# Assay results taken from ChEMBL document CHEMBL4831499, “Benzimidazole-galactosides bind selectively to the Galectin-8 N-Terminal domain: Structure-based design and optimisation” (Eur J Med Chem, 2021).
# Active and inactive are the calls of the source. No cut-off for these calls is given here.
# Key:
# Galectin-8 [1] = target: T1, Galectin-8 (Homo sapiens, UniProt O00214); assay: Binding affinity to human galactin-8 N terminal domain assessed as dissociation constant by competitive fluorescence polarization assay
# T1 sequence (O00214 whole entry): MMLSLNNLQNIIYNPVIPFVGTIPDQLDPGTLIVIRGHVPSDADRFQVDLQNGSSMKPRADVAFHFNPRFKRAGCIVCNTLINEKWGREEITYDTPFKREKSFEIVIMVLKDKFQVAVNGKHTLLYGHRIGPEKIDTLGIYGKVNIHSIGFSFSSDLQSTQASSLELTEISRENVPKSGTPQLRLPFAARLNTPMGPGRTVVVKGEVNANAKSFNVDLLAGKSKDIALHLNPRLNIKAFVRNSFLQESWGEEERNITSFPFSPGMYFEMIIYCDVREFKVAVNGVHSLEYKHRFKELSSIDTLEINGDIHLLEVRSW
# Galectin-3 [2] = target: T2, Galectin-3 (Homo sapiens, UniProt P17931); assay: Binding affinity to human galactin-3 assessed as dissociation constant by competitive fluorescence polarization assay
# Galectin-8 [3] = target: T1, Galectin-8; assay: Binding affinity to galectin-8 N-terminal domain (unknown origin)
# Galectin-3 [4] = target: T2, Galectin-3; assay: Binding affinity to galectin-3 (unknown origin)
# [5] = target: T3, Galectin-8 (Homo sapiens) (UniProt O00214); assay: Binding affinity to human galactin-8 N terminal domain assessed as dissociation constant at 1500 uM by competitive fluorescence polarization assay
# T3 sequence (whole entry): T1 sequence (O00214 whole entry)
# Homo sapiens [6] = species: Homo sapiens; assay: Selectivity ratio of Kd for binding affinity to human galactin-8 N terminal domain to Kd for binding affinity to human galactin-3
# Galectin-1 = Galectin-1 (Homo sapiens, UniProt P09382); assay: Binding affinity to human galactin-1 assessed as dissociation constant by competitive fluorescence polarization assay
# Galectin-2 = target: T4, Galectin-2 (Homo sapiens, UniProt P05162); assay: Binding affinity to human galactin-2 assessed as dissociation constant by competitive fluorescence polarization assay
# T4 sequence (P05162 whole entry): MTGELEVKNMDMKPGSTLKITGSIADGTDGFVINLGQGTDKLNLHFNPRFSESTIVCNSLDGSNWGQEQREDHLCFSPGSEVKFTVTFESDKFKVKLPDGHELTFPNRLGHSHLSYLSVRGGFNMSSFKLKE
# Galectin-4 [7] = target: T5, Galectin-4 (Homo sapiens, UniProt P56470); assay: Binding affinity to human galactin-4 N terminal domain assessed as dissociation constant by competitive fluorescence polarization assay
# T5 sequence (P56470 whole entry): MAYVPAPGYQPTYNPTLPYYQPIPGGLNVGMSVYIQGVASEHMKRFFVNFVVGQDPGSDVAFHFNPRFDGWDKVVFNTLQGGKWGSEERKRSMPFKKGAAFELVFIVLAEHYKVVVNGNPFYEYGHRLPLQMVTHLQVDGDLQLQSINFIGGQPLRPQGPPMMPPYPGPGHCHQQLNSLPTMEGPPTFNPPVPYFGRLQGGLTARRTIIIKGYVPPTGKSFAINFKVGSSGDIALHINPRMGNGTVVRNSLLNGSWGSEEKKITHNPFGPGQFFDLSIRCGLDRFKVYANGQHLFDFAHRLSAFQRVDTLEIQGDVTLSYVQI
# Galectin-4 [8] = target: T5, Galectin-4; assay: Binding affinity to human galactin-4 C terminal domain assessed as dissociation constant by competitive fluorescence polarization assay
# Galectin-7 = Galectin-7 (Homo sapiens, UniProt P47929); assay: Binding affinity to human galactin-7 assessed as dissociation constant by competitive fluorescence polarization assay
# Galectin-8 [9] = target: T1, Galectin-8; assay: Binding affinity to human galactin-8 C terminal domain assessed as dissociation constant by competitive fluorescence polarization assay
# Galectin-9 [10] = target: T6, Galectin-9 (Homo sapiens, UniProt O00182); assay: Binding affinity to human galactin-9 N terminal domain assessed as dissociation constant by competitive fluorescence polarization assay
# Galectin-9 [11] = target: T6, Galectin-9; assay: Binding affinity to human galactin-9 C terminal domain assessed as dissociation constant by competitive fluorescence polarization assay
# Homo sapiens [12] = species: Homo sapiens; assay: Selectivity ratio of Kd for binding affinity to human galactin-9 N terminal domain to binding affinity to human galactin-8 N terminal domain
# Galectin-3 [13] = target: T2, Galectin-3; assay: Binding affinity to human galactin-3 assessed as dissociation constant at 1500 uM by competitive fluorescence polarization assay
# Homo sapiens [14] = species: Homo sapiens; assay: Selectivity ratio of Kd for binding affinity to human galactin-9 C terminal domain to binding affinity to human galactin-8 N terminal domain
# T2 sequence (P17931 whole entry, the tested form may be a part): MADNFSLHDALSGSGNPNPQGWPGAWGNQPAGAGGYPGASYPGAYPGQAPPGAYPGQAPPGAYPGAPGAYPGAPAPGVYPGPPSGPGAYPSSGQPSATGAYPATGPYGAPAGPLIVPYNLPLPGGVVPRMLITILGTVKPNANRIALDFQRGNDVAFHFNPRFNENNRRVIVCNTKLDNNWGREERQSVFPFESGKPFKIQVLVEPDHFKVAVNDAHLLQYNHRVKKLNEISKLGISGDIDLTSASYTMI
# T6 sequence (O00182 whole entry, the tested form may be a part): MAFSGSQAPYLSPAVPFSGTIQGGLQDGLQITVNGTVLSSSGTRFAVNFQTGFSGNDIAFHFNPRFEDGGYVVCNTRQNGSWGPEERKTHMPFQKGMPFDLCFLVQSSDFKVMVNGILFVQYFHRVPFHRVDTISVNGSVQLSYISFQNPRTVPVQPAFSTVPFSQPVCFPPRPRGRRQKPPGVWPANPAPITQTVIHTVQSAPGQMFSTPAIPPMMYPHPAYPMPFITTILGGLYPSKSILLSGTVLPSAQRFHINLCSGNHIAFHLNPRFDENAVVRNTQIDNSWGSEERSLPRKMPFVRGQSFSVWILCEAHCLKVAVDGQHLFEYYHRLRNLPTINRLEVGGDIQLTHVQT
# Chain of Galectin-1 (P09382 whole entry): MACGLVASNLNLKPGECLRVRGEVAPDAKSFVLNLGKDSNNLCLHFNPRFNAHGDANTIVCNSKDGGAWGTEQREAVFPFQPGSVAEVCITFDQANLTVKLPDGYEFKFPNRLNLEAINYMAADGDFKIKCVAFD
# Chain of Galectin-7 (P47929 whole entry, the tested form may be a part): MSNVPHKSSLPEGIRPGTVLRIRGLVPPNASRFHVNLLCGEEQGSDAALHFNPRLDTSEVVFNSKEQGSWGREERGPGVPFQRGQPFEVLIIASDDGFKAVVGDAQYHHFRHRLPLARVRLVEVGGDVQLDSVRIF
Structure (SMILES),Kd (Galectin-8 [1]) [µM],Kd (Galectin-3 [2]) [µM],other results
COC(=O)c1cccc(-n2cc(CO[C@H]3[C@@H](O)[C@@H](CO)O[C@@H](Sc4ccc(C)cc4)[C@@H]3O)nn2)c1,1200,490,–
COC(=O)c1ccc2nc(CO[C@H]3[C@@H](O)[C@@H](CO)O[C@@H](OC)[C@@H]3O)[nH]c2c1,1200,1600,–
CO[C@@H]1O[C@H](CO)[C@H](O)[C@H](OCc2ccc3ccccc3n2)[C@H]1O,–,–,Kd (Galectin-8 [3]): 700 µM; Kd (Galectin-3 [4]): 620 µM
CO[C@@H]1O[C@H](CO)[C@H](O)[C@H](OCc2cn(-c3ccc(C(=O)O)cc3)nn2)[C@H]1O,1300,190,–
CO[C@@H]1O[C@H](CO)[C@H](O)[C@H](OCc2cn(-c3ccccc3C(=O)O)nn2)[C@H]1O,–,470,Activity [5]: inactive
COC(=O)c1ccc(-n2cc(CO[C@H]3[C@@H](O)[C@@H](CO)O[C@@H](OC)[C@@H]3O)nn2)cc1,> 2000,700,–
CO[C@@H]1O[C@H](CO)[C@H](O)[C@H](OCc2nc3cc(C(=O)O)ccc3n2C)[C@H]1O,> 2000,1100,–
COC(=O)c1ccccc1-n1cc(CO[C@H]2[C@@H](O)[C@@H](CO)O[C@@H](OC)[C@@H]2O)nn1,1400,330,–
CO[C@@H]1O[C@H](CO)[C@H](O)[C@H](OCc2nc3ccccc3n2C)[C@H]1O,1200,1600,–
CO[C@@H]1O[C@H](CO)[C@H](O)[C@H](OCc2ccc3ccc(C(=O)O)cc3n2)[C@H]1O,–,–,Kd (Galectin-8 [3]): 110 µM; Kd (Galectin-3 [4]): 380 µM
Cn1c(CO[C@@H]2[C@@H](O)[C@@H](Sc3ccc(Cl)c(Cl)c3)O[C@H](CO)[C@@H]2O)nc2ccc(C(=O)O)cc21,1.8,5,Selectivity ratio (Homo sapiens [6]): 25; Kd (Galectin-1): 130 µM; Kd (Galectin-2): 220 µM; Kd (Galectin-4 [7]): 130 µM; Kd (Galectin-4 [8]): 120 µM; Kd (Galectin-7): 190 µM; Kd (Galectin-8 [9]): 760 µM; Kd (Galectin-9 [10]): 16 µM; Kd (Galectin-9 [11]): 45 µM; Selectivity ratio (Homo sapiens [12]): 25
CCOC(=O)c1ccc2c(c1)nc(CO[C@H]1[C@@H](O)[C@@H](CO)O[C@@H](OC)[C@@H]1O)n2C,1600,2000,–
COC(=O)c1ccc2nc(CO[C@H]3[C@@H](O)[C@@H](CO)O[C@@H](OC)[C@@H]3O)n(C)c2c1,1100,–,Activity (Galectin-3 [13]): inactive
O=C(O)c1ccc2ccc(CO[C@@H]3[C@@H](O)[C@@H](Sc4ccc(Cl)c(Cl)c4)O[C@H](CO)[C@@H]3O)nc2c1,–,–,Kd (Galectin-8 [3]): 1.5 µM; Kd (Galectin-3 [4]): 1.2 µM
CO[C@@H]1O[C@H](CO)[C@H](O)[C@H](OCc2nc3ccccc3o2)[C@H]1O,1600,620,–
Cc1ccc(S[C@@H]2O[C@H](CO)[C@H](O)[C@H](OCc3cn(-c4ccc(C(=O)O)cc4)nn3)[C@H]2O)cc1,1500,230,–
Cc1ccc(S[C@@H]2O[C@H](CO)[C@H](O)[C@H](OCc3cn(-c4ccccc4C(=O)O)nn3)[C@H]2O)cc1,1200,690,–

# Continued, in another order:
Kd (Galectin-8 [1]) [µM],Kd (Galectin-3 [2]) [µM],Structure (SMILES),other results
1100,> 2000,COC(=O)c1ccccc1-n1cc(CO[C@H]2[C@@H](O)[C@@H](CO)O[C@@H](Sc3ccc(C)cc3)[C@@H]2O)nn1,–
860,1500,CO[C@@H]1O[C@H](CO)[C@H](O)[C@H](OCc2nc3ccccc3[nH]2)[C@H]1O,–
760,250,Cc1ccc(S[C@@H]2O[C@H](CO)[C@H](O)[C@H](OCc3cn(-c4cccc(C(=O)O)c4)nn3)[C@H]2O)cc1,–
810,510,COC(=O)c1cccc(-n2cc(CO[C@H]3[C@@H](O)[C@@H](CO)O[C@@H](OC)[C@@H]3O)nn2)c1,–
310,590,CO[C@@H]1O[C@H](CO)[C@H](O)[C@H](OCc2nc3ccc(C(=O)O)cc3[nH]2)[C@H]1O,–
940,> 2000,COC(=O)c1ccc(-n2cc(CO[C@H]3[C@@H](O)[C@@H](CO)O[C@@H](Sc4ccc(C)cc4)[C@@H]3O)nn2)cc1,–
190,1400,CO[C@@H]1O[C@H](CO)[C@H](O)[C@H](OCc2nc3ccc(C(=O)O)cc3n2C)[C@H]1O,Selectivity ratio (Homo sapiens [6]): 7
640,500,CO[C@@H]1O[C@H](CO)[C@H](O)[C@H](OCc2cn(-c3cccc(C(=O)O)c3)nn2)[C@H]1O,–
870,510,CO[C@@H]1O[C@H](CO)[C@H](O)[C@H](OCc2nc3ccccc3s2)[C@H]1O,–
2.8,4.1,O=C(O)c1ccc2nc(CO[C@@H]3[C@@H](O)[C@@H](Sc4ccc(Cl)c(Cl)c4)O[C@H](CO)[C@@H]3O)[nH]c2c1,Kd (Galectin-1): 87 µM; Kd (Galectin-2): 100 µM; Kd (Galectin-4 [7]): 78 µM; Kd (Galectin-4 [8]): 160 µM; Kd (Galectin-7): 43 µM; Kd (Galectin-8 [9]): 450 µM; Kd (Galectin-9 [10]): 13 µM; Kd (Galectin-9 [11]): 18 µM; Selectivity ratio (Homo sapiens [12]): 5; Selectivity ratio (Homo sapiens [14]): 9
